Measurements from patent US20090105305A1, “Therapeutic Agents - 550” (AstraZeneca AB, priority 2006, published 2009).

target: T1, human Fatty Acid Synthase (Homo sapiens, UniProt P49327); test: Human FAS enzyme assay (decrease in NADPH fluorescence); type: biochemical; conditions: % inhibition at a concentration of 100 micromolar
T1 construct: made in house
Excerpt: The compounds of the present invention are Fatty Acid Synthase inhibitors. […] Human and Rat FAS Enzyme Assay.
Fatty acid synthase is an enzyme complex that harbours seven enzymatic activities catalysing the reductive synthesis of long chain fatty acids from acetyl CoA and malonyl CoA to palmitate. When acetyl CoA and malonyl CoA are forming palmitate NADPH is consumed forming NADP. Since NADPH is fluorescent but not NADP the reaction can be measured by analysing the decrease in fluorescence.
Compounds were added to a black 384 well plate (Matrix) in a volume of 5 μl consisting of 20% DMSO and 80% Tris buffer pH 7.5, at a top concentration of 1 mM. NADPH, 30 μl of 166.6 μM, formulated in assay buffer (0.1M Tris ph7.5, 0.1 mM EDTA, 1 mM glutathione, 0.05% BSA), was then added to all of the wells of the plate. Fatty acid synthase Human or rat enzyme (0.4 μg, produced in house), dissolved in 20 mM Tris/HCl pH 7.5, 5 mM BOG, 1 mM TCEP, 10% glycerol, 1 mM EDTA, 150 mM NaCl, was then added to the plate in a volume of […]. Enzyme was added to all but the last two columns of the plate, to which, 10 μl of assay buffer was added (0.1M Tris ph7.5, 0.1 mM EDTA, 1 mM glutathione, 0.05% BSA) to provide a no enzyme assay control. Following a 15-minute incubation period, at room temperature, the plates were read on an Envision plate reader using 340 nm excitation and 460 nm emission filters. This served as a time zero background read. Substrates (an equal mix of both malonyl and acetyl CoA) were then added to the plates in a total volume of 5 μl. The concentrations of malonyl and acetyl CoA in the mixture were 500 μM and 150 μM respectively. Both were prepared as 10 mM stock solutions in distilled water and were subsequently diluted to working concentrations in assay buffer. Plates were then incubated for a further 60 minutes, at room temperature, before being read again on the Envision reader using the same parameters as previously used. The data was analysed by subtracting the background time zero data from that generated following the final 60 minute incubate and the percent inhibition compared to the maximum and minimum assay controls was determined. Sigmoid curves were fitted using Origin 7.5 Client software and IC50 values were determined.

T1 sequence (P49327 whole entry): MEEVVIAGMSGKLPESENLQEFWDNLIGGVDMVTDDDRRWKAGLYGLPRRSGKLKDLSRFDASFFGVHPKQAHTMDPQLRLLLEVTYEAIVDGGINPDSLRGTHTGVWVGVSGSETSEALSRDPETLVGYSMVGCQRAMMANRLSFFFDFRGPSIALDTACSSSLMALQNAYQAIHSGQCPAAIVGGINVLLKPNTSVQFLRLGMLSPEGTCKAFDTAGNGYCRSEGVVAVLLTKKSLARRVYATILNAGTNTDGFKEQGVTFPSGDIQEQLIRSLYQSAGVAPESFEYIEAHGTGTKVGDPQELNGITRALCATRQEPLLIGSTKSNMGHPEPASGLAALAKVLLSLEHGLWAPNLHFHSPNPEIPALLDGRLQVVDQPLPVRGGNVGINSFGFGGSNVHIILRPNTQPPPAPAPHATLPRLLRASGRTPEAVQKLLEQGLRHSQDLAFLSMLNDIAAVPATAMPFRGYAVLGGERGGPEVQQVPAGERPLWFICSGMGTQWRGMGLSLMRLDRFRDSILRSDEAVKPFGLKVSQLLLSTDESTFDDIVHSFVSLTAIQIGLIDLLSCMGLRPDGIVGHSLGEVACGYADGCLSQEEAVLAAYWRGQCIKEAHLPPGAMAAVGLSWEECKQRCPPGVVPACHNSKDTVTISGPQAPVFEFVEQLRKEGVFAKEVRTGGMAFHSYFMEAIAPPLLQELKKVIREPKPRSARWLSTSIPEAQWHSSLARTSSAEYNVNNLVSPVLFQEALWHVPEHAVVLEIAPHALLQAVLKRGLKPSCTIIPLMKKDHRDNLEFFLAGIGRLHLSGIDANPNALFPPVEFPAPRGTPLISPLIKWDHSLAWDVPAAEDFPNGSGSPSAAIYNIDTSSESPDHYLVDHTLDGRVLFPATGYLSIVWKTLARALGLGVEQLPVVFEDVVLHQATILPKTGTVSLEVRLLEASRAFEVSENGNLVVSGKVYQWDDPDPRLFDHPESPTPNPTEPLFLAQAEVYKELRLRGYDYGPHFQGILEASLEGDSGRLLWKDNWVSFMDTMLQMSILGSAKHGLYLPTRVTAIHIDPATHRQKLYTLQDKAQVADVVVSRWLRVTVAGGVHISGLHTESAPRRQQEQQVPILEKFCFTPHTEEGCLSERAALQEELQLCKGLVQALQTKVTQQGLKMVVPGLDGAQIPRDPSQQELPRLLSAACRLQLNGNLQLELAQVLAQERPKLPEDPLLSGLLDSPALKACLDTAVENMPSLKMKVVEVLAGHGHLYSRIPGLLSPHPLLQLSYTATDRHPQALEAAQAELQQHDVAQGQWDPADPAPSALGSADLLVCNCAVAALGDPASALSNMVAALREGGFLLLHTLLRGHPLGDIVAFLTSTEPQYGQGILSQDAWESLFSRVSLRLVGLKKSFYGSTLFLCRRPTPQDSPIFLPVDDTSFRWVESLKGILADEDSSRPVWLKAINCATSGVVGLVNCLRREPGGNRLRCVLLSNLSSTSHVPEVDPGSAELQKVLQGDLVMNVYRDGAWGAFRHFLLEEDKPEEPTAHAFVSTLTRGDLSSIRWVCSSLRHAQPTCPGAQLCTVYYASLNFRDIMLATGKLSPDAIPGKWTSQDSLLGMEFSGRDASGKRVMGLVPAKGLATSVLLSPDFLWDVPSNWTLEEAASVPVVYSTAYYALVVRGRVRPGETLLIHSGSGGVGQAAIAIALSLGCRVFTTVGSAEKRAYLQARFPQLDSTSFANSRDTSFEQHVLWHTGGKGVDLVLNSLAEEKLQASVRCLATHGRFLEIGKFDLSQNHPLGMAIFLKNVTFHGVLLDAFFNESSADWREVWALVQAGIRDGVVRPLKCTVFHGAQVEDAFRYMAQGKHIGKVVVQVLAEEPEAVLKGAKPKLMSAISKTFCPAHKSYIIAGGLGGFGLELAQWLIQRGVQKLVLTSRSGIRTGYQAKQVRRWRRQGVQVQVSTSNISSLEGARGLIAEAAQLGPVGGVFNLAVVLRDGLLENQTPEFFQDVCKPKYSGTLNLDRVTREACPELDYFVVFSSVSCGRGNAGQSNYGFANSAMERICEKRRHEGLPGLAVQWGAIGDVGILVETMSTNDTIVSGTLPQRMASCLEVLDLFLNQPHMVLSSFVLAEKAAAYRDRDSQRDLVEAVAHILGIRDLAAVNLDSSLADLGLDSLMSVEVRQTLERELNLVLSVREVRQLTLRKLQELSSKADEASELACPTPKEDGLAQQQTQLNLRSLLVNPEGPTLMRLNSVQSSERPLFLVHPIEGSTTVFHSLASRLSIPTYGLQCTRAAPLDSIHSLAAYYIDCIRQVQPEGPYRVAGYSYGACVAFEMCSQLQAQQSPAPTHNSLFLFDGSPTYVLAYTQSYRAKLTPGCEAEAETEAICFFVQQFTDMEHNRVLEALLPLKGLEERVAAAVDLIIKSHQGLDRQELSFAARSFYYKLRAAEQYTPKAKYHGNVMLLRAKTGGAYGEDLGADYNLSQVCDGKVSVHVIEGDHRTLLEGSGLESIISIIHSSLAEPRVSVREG

Row | Structure (SMILES) | inhibition at 100 µM [%]
1 | Cc1ccc(C(=O)N2CCC(c3ccc(C#N)cc3)CC2)cc1NS(=O)(=O)CC1(C)NC(=O)NC1=O (stereo in doubt) [Example 147, N-[5-[4-(4-cyanophenyl)piperidine-1-carbonyl]-2-methyl-phenyl]-1-[(4R)-4-methyl-2,5-dioxo-imidazolidin-4-yl]methanesulfonamide] | 98
2 | Cc1ccc(C(=O)N2CCC(c3ccc(C#N)cc3)CC2)cc1NS(=O)(=O)c1ccccc1F [Example 2, N-[5-[4-(4-cyanophenyl)piperidine-1-carbonyl]-2-methyl-phenyl]-2-fluoro-benzenesulfonamide] | 82
3 | Cc1ccc(C(=O)N2CCC(c3ccc(C#N)cc3)CC2)cc1NS(=O)(=O)c1ccc(Cl)cc1 [Example 3, 4-chloro-N-[5-[4-(4-cyanophenyl)piperidine-1-carbonyl]-2-methyl-phenyl]benzenesulfonamide] | 96
4 | Cc1ccc(C(=O)N2CCC(c3ccc(C#N)cc3)CC2)cc1NS(=O)(=O)Cc1ccccc1 [Example 4, N-[5-[4-(4-cyanophenyl)piperidine-1-carbonyl]-2-methyl-phenyl]-1-phenyl-methanesulfonamide] | 81
5 | Cc1ccc(C(=O)N2CCC(c3ccc(C#N)cc3)CC2)cc1NS(=O)(=O)CCCCl [Example 9, 3-chloro-N-[5-[4-(4-cyanophenyl)piperidine-1-carbonyl]-2-methyl-phenyl]propane-1-sulfonamide] | 95
6 | Cc1ccc(C(=O)N2CCC(c3ccc(C#N)cc3)CC2)cc1NS(=O)(=O)c1ccccc1 [Example 10, N-[5-[4-(4-cyanophenyl)piperidine-1-carbonyl]-2-methyl-phenyl]benzenesulfonamide] | 78

Results, then the compound that gave them:

Row | inhibition at 100 µM [%] | Structure (SMILES)
7 | 92 | CCC(C)S(=O)(=O)Nc1cc(C(=O)N2CCC(c3ccc(C#N)cc3)CC2)ccc1C (racemic) [Example 18, (RS)—N-[5-[4-(4-cyanophenyl)piperidine-1-carbonyl]-2-methyl-phenyl]butane-2-sulfonamide]
8 | 89 | CCC(C)S(=O)(=O)Nc1ccc(C)c(C(=O)N2CCC(c3ccc(C#N)cc3)CC2)c1 (racemic) [Example 44, (RS) N-[3-[4-(4-cyanophenyl)piperidine-1-carbonyl]-4-methyl-phenyl]butane-2-sulfonamide]
9 | 86 | Cc1ccc(C(=O)N2CCC(c3ccc(C#N)cc3)CC2)cc1NS(C)(=O)=O [Example 1, N-(5-(4-(4-cyanophenyl)piperidine-1-carbonyl)-2-methylphenyl)methanesulfonamide]
10 | 92 | CCCS(=O)(=O)Nc1cc(C(=O)N2CCC(c3ccc(C#N)cc3)CC2)ccc1C [Example 5, N-[5-[4-(4-cyanophenyl)piperidine-1-carbonyl]-2-methyl-phenyl]propane-1-sulfonamide]
11 | 75 | COc1ccc(C(=O)N2CCC(c3ccc(C#N)cc3)CC2)cc1NS(C)(=O)=O [Example 6, N-[5-[4-(4-cyanophenyl)piperidine-1-carbonyl]-2-methoxy-phenyl]methanesulfonamide]
12 | 78 | Cc1ccc(NS(C)(=O)=O)cc1C(=O)N1CCC(c2ccc(C#N)cc2)CC1 [Example 7, N-[3-[4-(4-cyanophenyl)piperidine-1-carbonyl]-4-methyl-phenyl]methanesulfonamide]
13 | 82 | Cc1ccc(NS(=O)(=O)Cc2ccccc2)cc1C(=O)N1CCC(c2ccc(C#N)cc2)CC1 [Example 8, N-[3-[4-(4-cyanophenyl)piperidine-1-carbonyl]-4-methyl-phenyl]-1-phenyl-methanesulfonamide]
14 | 88 | CCS(=O)(=O)Nc1cc(C(=O)N2CCC(c3ccc(C#N)cc3)CC2)ccc1C [Example 11, N-[5-[4-(4-cyanophenyl)piperidine-1-carbonyl]-2-methyl-phenyl]ethanesulfonamide]
15 | 90 | CCCCS(=O)(=O)Nc1cc(C(=O)N2CCC(c3ccc(C#N)cc3)CC2)ccc1C [Example 12, N-[5-[4-(4-cyanophenyl)piperidine-1-carbonyl]-2-methyl-phenyl]butane-1-sulfonamide]
16 | 76 | COC(=O)CS(=O)(=O)Nc1cc(C(=O)N2CCC(c3ccc(C#N)cc3)CC2)ccc1C [Example 13, methyl 2-[[5-[4-(4-cyanophenyl)piperidine-1-carbonyl]-2-methyl-phenyl]sulfamoyl]acetate]
17 | 89 | Cc1ccc(C(=O)N2CCC(c3ccc(C#N)cc3)CC2)cc1NS(=O)(=O)C1CC1 [Example 14, N-[5-[4-(4-cyanophenyl)piperidine-1-carbonyl]-2-methyl-phenyl]cyclopropanesulfonamide]

same assay, conditions: compounds excluded from the claims by proviso

Row | Structure (SMILES) | IC50s in the range of about 0.001 μM to about 30 μM
18 | Cc1ccc(C(=O)N2CCC(c3ccc(CC(=O)N(C)C)cc3)CC2)cc1NS(C)(=O)=O [2-[4-[1-(3-methanesulfonamido-4-methylbenzoyl)piperidin-4-yl]phenyl]-N,N-dimethylacetamide] | do not have IC50s in the range of about 0.001 μM to about 30 μM
19 | Cc1ccc(C(=O)N2CCC(c3ccc(CC(N)=O)cc3)CC2)cc1NS(C)(=O)=O [2-[4-[1-(3-methanesulfonamido-4-methylbenzoyl)piperidin-4-yl]phenyl]acetamide] | do not have IC50s in the range of about 0.001 μM to about 30 μM
20 | Cc1ccc(C(=O)N2CCC(c3ccc(CC(=O)O)cc3)CC2)cc1NS(C)(=O)=O [2-[4-[1-(3-methanesulfonamido-4-methylbenzoyl)piperidin-4-yl]phenyl]acetic acid] | do not have IC50s in the range of about 0.001 μM to about 30 μM
21 | Cc1ccc(C(=O)N2CCC(c3ccc(CC(=O)O)cc3)CC2)cc1NS(=O)(=O)C1CCCCC1 [2-[4-[1-[3-(cyclohexylsulfonylamino)-4-methylbenzoyl]piperidin-4-yl]phenyl]acetic acid] | do not have IC50s in the range of about 0.001 μM to about 30 μM
22 | COc1ccc(CNC(=O)c2ccccc2S(=O)(=O)Nc2cc(C(=O)N3CCC(c4ccc(C#N)cc4)CC3)ccc2C)c(OC)c1 [2-[[5-[4-(4-cyanophenyl)piperidine-1-carbonyl]-2-methylphenyl]sulfamoyl]-N-[(2,4-dimethoxyphenyl)methyl]benzamide] | do not have IC50s in the range of about 0.001 μM to about 30 μM
23 | CNC(=O)c1ccccc1S(=O)(=O)Nc1cc(C(=O)N2CCC(c3ccc(C#N)cc3)CC2)ccc1C [2-[[5-[4-(4-cyanophenyl)piperidine-1-carbonyl]-2-methylphenyl]sulfamoyl]-N-methylbenzamide] | do not have IC50s in the range of about 0.001 μM to about 30 μM
24 | Cc1ccc(C(=O)N2CCC(c3ccc(C#N)cc3)CC2)cc1NS(=O)(=O)c1ccccc1C(=O)O [2-[[5-[4-(4-cyanophenyl)piperidine-1-carbonyl]-2-methylphenyl]sulfamoyl]benzoic acid] | do not have IC50s in the range of about 0.001 μM to about 30 μM
25 | Cc1ccc(C(=O)N2CCC(c3ccc(CNC(=O)C(C)(C)O)cc3)CC2)cc1NS(C)(=O)=O [2-hydroxy-N-[[4-[1-(3-methanesulfonamido-4-methylbenzoyl)piperidin-4-yl]phenyl]methyl]-2-methylpropanamide] | do not have IC50s in the range of about 0.001 μM to about 30 μM
26 | Cc1ccc(C(=O)N2CCC(c3ccc(C(=O)N(C)C)cc3)CC2)cc1NS(C)(=O)=O [4-[1-(3-methanesulfonamido-4-methylbenzoyl)piperidin-4-yl]-N,N-dimethylbenzamide] | do not have IC50s in the range of about 0.001 μM to about 30 μM
27 | Cc1ccc(C(=O)N2CCC(c3ccc(S(=O)(=O)N(C)C)cc3)CC2)cc1NS(C)(=O)=O [4-[1-(3-methanesulfonamido-4-methylbenzoyl)piperidin-4-yl]-N,N-dimethylbenzenesulfonamide] | do not have IC50s in the range of about 0.001 μM to about 30 μM
28 | Cc1ccc(C(=O)N2CCC(c3ccccc3)CC2)cc1NS(=O)(=O)c1ccc(Cl)cc1 [4-chloro-N-[2-methyl-5-(4-phenylpiperidine-1-carbonyl)phenyl]benzenesulfonamide] | do not have IC50s in the range of about 0.001 μM to about 30 μM
29 | Cc1ccc(C(=O)N2CCC(c3ccc(C#N)cc3)CC2)cc1NS(=O)(=O)C1CCN(C(=O)OCc2ccccc2)C1 (centres unmarked) [Benzyl 3-[[5-[4-(4-cyanophenyl)piperidine-1-carbonyl]-2-methylphenyl]sulfamoyl]pyrrolidine-1-carboxylate] | do not have IC50s in the range of about 0.001 μM to about 30 μM
